Data as given in patent US12318361B2, “Methods for treating cardiovascular diseases” (Olatec Therapeutics LLC, priority 2017, dated 2025).

Key:
[1] = tested on: IL-18 release from human monocytes-derived macrophages; assay: Suppression of IL-18 release from human monocytes-derived macrophages (LPS priming, nigericin release, ELISA); format: cell-based
Method: (§1) Peripheral blood mononuclear cells (PBMCs) were isolated from blood of 6 healthy human donors and differenciates in macrophages using GM-CSF (5 ng/ml) for 5 days. They were stimulated with 1 μg/mL with lipopolysaccharide (LPS, priming phase) at time zero. At 30 minutes, they were incubated with different concentrations of dapansutrile (OLT1177™) from 0.001-100 μM. At 4 hours, 10 μM of nigericin (NIG, release phase) was added. At the end of an 5 hour incubation period, the supernatant was harvested and assayed for IL-1β or IL-18 using respective ELISA kits following manafacturer's protocols.

[2] = tested on: IL-1β release from human monocytes-derived macrophages; assay: Suppression of IL-1β release from human monocytes-derived macrophages (LPS priming, nigericin release, ELISA); format: cell-based
Method: as §1

[3] = HMDM, 1 μg/mL LPS then 10 μM nigericin, 0.001-100 μM tested
[4] = LPS/nigericin, compared to control

For CS(=O)(=O)CCC#N [OLT1177™, 3-methanesulfonyl-propionitrile], the “concentration of maximum suppression effects on IL-18 release” value [1, 3] was 10 to 50 µM, the “release of IL-18 from stimulated monocytes-derived macrophages” value [1, 4] was “suppresses” and the “concentration of maximum suppression effect on IL-1β release” value [2, 3] was 1 µM. For the same compound, the “release of IL-1β from stimulated monocytes-derived macrophages” value [2, 4] was “suppresses”.
